Test results: patent EP1631829B1, “METHOD AND APPARATUS FOR CHARACTERIZATION OF INTERACTIONS” (GE Healthcare Bio-Sciences AB, priority 2003, dated 2004)

Target: T1, HSA (Homo sapiens, UniProt P02768)
T1 construct: purchased Sigma A 3782
Assay: two-sample (dual) gradient pulse injection SPR assay, site availability of drugs binding to HSA
Settings: digitoxin and warfarin, 50 µM each, added individual responses vs mixture, 25 °C

T1 sequence (P02768 25-609): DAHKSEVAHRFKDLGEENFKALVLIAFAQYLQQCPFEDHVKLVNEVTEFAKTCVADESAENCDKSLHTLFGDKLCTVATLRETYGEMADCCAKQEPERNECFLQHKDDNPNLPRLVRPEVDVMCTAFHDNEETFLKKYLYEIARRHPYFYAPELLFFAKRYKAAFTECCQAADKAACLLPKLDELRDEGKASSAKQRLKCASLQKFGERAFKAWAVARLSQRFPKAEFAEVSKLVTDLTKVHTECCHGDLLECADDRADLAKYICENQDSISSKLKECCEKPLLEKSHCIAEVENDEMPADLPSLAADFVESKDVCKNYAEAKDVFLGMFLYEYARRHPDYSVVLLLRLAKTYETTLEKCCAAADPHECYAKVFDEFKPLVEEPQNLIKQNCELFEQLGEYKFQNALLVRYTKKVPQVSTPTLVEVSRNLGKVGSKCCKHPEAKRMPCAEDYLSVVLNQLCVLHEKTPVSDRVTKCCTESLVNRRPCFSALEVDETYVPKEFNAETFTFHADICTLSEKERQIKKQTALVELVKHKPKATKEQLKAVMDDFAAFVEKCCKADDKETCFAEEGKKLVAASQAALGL

C[C@H]1O[C@@H](O[C@H]2[C@@H](O)C[C@H](O[C@H]3[C@@H](O)C[C@H](O[C@H]4CC[C@@]5(C)[C@H](CC[C@@H]6[C@@H]5CC[C@]5(C)[C@@H](C7=CC(=O)OC7)CC[C@]65O)C4)O[C@@H]3C)O[C@@H]2C)C[C@H](O)[C@@H]1O [Digitoxin, digitoxin]
binding site relation on HSA: non-competitive binders
